Assay results: paper PMC11308363, “Bioinformatic, Enzymatic, and Structural Characterization of Trichuris suis Hexosaminidase HEX-2” (Biochemistry, 2024)

Assays:
[1] = molecular target: T1, T. suis HEX-2 (Trichuris suis, UniProt A0A085NCI8); assay: pNP-β-GalNAc hydrolysis assay with purified enzyme, Ki fitted in Prism; type: biochemical
T1 construct: gene M514_07548; recombinant C-terminally His-tagged, secreted from Pichia; residues 85–620 (long) or 135–620 (short) of the predicted protein

[2] = substrate: CC(=O)N[C@H]1[C@H](Oc2ccc([N+](=O)[O-])cc2)O[C@H](CO)[C@H](O)[C@@H]1O; assay: Michaelis–Menten kinetics, absorbance assay with purified enzyme (apparent Km); type: biochemical, Trichuris suis

Molecule	Ki [1] [nM]	Km [2] [µM]
GalNAc-isofagomine	600	
T. suis HEX-2 (Trichuris suis) (protein, recombinant C-terminally His-tagged, secreted from Pichia; residues 85–620 (long) or 135–620 (short) of the predicted protein) SNVFIPKRRIVHLDLKGAAPKPQHFRAFFEYFVRIGATGILIEWEDMFPYEGRLSDLRNGDAYSADDVRMILSTADQLRLEVIPLVQTIGHLEWLLKTHKFYSFRENPRNPQSVCVSNAEAVDLVLHLVDQVMAFHKDYGQFVHIGADEVYQYGECSRCVARMNKENLRREDLLLRHIVNVSKHVKTKYGKNVLMWHDMIANIDASLAEKYDLKNLVEPVLWNYAEDLEAFLPMGIWETFSAMVPYMWGSSAFKGADSPTRYHSNVKHYLENHISWIKQMSTASEKFREFRGLIFTGWQRYDHFAVLCEFLPIGIPSLTVNMLTIRNGRFDASVNDQAISIMQCVTGSDVKGDLYGCRFPGSDIYHHVQLLHEKKGEIEKLLLQQSVQGWLSNIAIDYNMSSPWYMNLIVPDLMTYKNQMIELSLNIRQAMLEMFYENAVDEFLFTYVDPVINHLQRLLDRATAIQRRDEFPVRPFPIKRTIDTTR		900
